Reference: ChEMBL document CHEMBL1144226, “Design and synthesis of 2-amino-isoxazolopyridines as Polo-like kinase inhibitors” (Bioorg Med Chem Lett, 2008)
Activity calls are given as the source filed them. The calls are words filed in the database; no cut-off is given here.

Columns and labels:
cells = conditions: Homo sapiens, HCT-116
[1] = molecular target: Serine/threonine-protein kinase PLK1 (Homo sapiens, UniProt P53350)
HCT-116 = assay: Effect on morphology in human HCT 116 cells assessed as monopolar spindle phenotype; assay type: functional, cell-based
[2] = molecular target: Serine/threonine-protein kinase PLK3 (Homo sapiens, UniProt Q9H4B4)
[3] = molecular target: Serine/threonine-protein kinase PLK2 (Homo sapiens, UniProt Q9NYY3)
Sequence of Serine/threonine-protein kinase PLK2 (Q9NYY3 whole entry): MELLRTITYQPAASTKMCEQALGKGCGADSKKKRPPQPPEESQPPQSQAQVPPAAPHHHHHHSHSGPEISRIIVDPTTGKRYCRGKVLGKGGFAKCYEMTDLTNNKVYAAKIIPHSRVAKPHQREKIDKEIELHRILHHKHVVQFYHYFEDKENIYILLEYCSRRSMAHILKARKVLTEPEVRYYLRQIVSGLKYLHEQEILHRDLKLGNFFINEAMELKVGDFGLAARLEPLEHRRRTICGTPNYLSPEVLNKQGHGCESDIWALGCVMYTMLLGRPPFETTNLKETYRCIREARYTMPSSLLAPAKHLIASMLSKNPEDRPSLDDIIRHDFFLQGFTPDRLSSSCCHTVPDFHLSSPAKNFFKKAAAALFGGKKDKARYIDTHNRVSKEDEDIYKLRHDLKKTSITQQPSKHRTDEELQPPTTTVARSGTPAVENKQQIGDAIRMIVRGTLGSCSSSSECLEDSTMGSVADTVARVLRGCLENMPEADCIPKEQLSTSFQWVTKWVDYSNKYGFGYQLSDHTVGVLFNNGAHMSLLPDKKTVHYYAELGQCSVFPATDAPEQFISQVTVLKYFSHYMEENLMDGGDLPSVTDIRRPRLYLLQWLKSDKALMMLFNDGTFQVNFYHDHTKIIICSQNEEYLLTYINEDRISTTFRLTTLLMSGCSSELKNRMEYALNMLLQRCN

Sequence of Serine/threonine-protein kinase PLK1 (P53350 whole entry): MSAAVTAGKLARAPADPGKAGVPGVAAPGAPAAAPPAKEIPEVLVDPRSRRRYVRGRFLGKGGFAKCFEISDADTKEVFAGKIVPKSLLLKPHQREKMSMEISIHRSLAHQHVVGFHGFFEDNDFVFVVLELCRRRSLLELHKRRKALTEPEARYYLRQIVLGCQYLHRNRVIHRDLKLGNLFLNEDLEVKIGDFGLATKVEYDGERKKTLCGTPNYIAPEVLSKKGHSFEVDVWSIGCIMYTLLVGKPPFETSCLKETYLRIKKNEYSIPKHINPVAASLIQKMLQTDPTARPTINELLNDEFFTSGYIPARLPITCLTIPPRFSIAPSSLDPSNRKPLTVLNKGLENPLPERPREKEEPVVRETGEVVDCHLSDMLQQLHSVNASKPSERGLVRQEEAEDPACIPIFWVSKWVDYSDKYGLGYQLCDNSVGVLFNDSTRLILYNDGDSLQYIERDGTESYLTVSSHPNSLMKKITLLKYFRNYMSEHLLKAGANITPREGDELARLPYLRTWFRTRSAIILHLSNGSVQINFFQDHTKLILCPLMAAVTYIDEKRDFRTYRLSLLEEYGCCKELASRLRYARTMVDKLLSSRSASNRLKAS
Sequence of Serine/threonine-protein kinase PLK3 (Q9H4B4 whole entry): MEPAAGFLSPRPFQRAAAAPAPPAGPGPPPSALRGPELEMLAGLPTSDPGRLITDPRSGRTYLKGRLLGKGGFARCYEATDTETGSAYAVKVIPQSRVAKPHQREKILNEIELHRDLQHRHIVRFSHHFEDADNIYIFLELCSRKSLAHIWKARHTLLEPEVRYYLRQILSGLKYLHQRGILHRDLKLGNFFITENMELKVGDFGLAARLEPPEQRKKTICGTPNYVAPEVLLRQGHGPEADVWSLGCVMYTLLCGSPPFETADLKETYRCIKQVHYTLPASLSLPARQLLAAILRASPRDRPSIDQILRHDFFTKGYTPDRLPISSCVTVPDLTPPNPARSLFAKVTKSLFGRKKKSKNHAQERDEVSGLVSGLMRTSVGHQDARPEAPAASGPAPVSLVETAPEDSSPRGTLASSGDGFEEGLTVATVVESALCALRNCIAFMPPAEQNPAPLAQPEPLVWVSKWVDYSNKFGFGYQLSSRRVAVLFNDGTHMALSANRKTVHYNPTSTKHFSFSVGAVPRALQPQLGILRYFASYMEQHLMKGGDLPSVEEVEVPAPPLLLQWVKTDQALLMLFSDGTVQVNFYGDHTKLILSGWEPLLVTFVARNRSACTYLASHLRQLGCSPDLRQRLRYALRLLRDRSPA

| SMILES | IC50 (cells) | other results |
| --- | --- | --- |
| COc1ccc(-c2noc3cnc(N[C@@H](C)c4ccccc4)cc23)cc1OC | > 20 µM |  |
| C[C@H](Nc1cc2c(-c3ccccc3)noc2cn1)c1ccccc1 | > 20 µM |  |
| Cc1ccc(-c2noc3cnc(N[C@@H](C)c4ccccc4)cc23)cc1 | > 20 µM |  |
| C[C@H](Nc1cc2c(Cc3ccccc3)noc2cn1)c1ccccc1 |  | IC50 [1]: > 20 µM |
| C[C@H](Nc1cc2c(-c3cccc(Cl)c3)noc2cn1)c1ccccc1 | > 20 µM |  |
| C[C@H](Nc1cc2c(-c3cc(Cl)cc(CCC(N)=O)c3)noc2cn1)c1ccccc1 | 8.35 µM | Activity (HCT-116): Active |
| Cc1cc(C)cc(-c2noc3cnc(N[C@@H](C)c4ccccc4)cc23)c1 | > 20 µM |  |
| Cc1cccc(-c2noc3cnc(N[C@@H](C)c4ccccc4)cc23)c1 | 6.69 µM |  |
| C[C@H](Nc1cc2c(-c3ccc4c(c3)OCO4)noc2cn1)c1ccccc1 | 7.32 µM | IC50 [2]: 0.024 µM; IC50 [1]: 0.214 µM; IC50 [3]: 0.004 µM |
| C[C@H](Nc1cc2c(-c3cc(Cl)cc(CCCO)c3)noc2cn1)c1ccccc1 | 10.2 µM |  |
